This is an account of results in ChEMBL document CHEMBL1201862, “PubChem BioAssay data set” (2004).

Active and inactive are the calls of the source.

In test [1] the target is Serine/threonine-protein phosphatase PP1-alpha catalytic subunit (Homo sapiens, UniProt P62136). Briefly: inhibition of protein phosphatase 1 activity – biochemical, fluorescence, dose response (AID 2394).
Test [2] addresses Glucose-6-phosphate 1-dehydrogenase (Homo sapiens, UniProt P11413). As to the kind of experiment: inhibition of Homo sapiens G6PD, dose series – biochemical, fluorescence, selectivity assay for P. falciparum G6PD inhibitor project, dose response (AID 504792). It counts as functional.

In general, IC50 refers to the midpoint of a concentration-inhibition curve.

Chain of Serine/threonine-protein phosphatase PP1-alpha catalytic subunit (P62136 whole entry): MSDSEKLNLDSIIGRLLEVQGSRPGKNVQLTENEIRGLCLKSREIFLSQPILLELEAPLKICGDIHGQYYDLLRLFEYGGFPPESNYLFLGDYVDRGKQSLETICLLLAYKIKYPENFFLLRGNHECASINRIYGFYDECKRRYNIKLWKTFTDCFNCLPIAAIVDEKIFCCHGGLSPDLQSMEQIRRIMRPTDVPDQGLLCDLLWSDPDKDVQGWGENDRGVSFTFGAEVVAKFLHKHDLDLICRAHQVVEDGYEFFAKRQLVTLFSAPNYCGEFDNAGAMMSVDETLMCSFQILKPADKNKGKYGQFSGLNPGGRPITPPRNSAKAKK
Chain of Glucose-6-phosphate 1-dehydrogenase (P11413 whole entry): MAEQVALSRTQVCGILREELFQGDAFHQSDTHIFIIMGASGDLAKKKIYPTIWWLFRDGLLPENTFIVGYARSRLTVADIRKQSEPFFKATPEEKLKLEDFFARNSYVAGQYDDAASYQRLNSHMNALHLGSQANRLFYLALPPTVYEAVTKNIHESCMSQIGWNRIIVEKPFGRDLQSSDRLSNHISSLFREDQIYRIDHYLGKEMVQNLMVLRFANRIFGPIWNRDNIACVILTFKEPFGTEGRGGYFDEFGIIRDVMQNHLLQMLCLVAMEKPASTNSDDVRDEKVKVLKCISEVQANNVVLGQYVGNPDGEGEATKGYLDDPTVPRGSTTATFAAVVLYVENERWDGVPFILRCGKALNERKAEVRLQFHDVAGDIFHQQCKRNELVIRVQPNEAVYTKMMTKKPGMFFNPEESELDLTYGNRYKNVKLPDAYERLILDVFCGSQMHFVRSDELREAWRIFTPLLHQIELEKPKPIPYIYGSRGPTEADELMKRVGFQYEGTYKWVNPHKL

For `Oc1ccc(/C=N/Nc2cc(N3CCCC3)nc(N3CCCC3)n2)cc1`, the IC50 in test [1] is on record as > 67 µM (not active). With `COc1ccc(S(=O)(=O)/N=C2\C=C(Nc3ccc(O)cc3)C(=O)c3ccccc32)cc1`, in test [2], the IC50 was > 80 µM (inactive).
